In US20030216398A1, “Soluble beta amyloid precursor protein secretion promoters” (priority 2002, published 2003):

Tests used:
[1] = test system: sAPP Secretion in Rat-Derived Pheochromocytoma PC12h Cells; assay: sAPP secretion promoting activity in PC12h cells (Western blotting of culture supernatant); format: cell-based; conditions: 3 hours after addition
Method: Substrain PC12 h cells of rat-derived pheochromocytoma PC12 h cells (Brain Res., 222 (191), p. 225-233) were handed out by Professor Hiroshi Hatanaka of Osaka University. Dulbecco's modified Eagle's medium (DMEM) was purchased from Nissui Seiyaku K.K., HEPES (N-2-hydroxyethylpiperazine-N′-2-ethanesulfonic acid) buffer (pH 7.4), horse serum (HS) and a penicillin (5000 U/ml)/streptomycin (5 mg/ml) mixture from Gibco, and fetal calf serum (FCS) from BioWhittaker, Inc. A flask for incubation and a 6-well multi-well plate coated with collagen manufactured by Falcon Co., Ltd. and Iwaki Glass Co., Ltd., respectively, were used. Anti-βAPP 22C11 antibody was purchased from Roche Diagnostics, Inc. Other reagents used were special grade chemicals commercially available.
PC12h cells were grown in DMEM medium supplemented with 10% FCS/5% HS/penicillin-streptomycin, the cells were taken out by pipetting. The cells were inoculated on the collagen-coated 6-well plate to become 50-70% confluent, which was allowed to stand for a day. On the following day, the well was rinsed twice with 1 ml of […] HEPES/DMEM. […]
The culture supernatant was concentrated by ultrafiltration using Microcon 10 (Amicon, Inc.). […] ECL Plus (Amersham, Inc.) was used for detection, followed by digitalization in Fluor-S Max (Bio-Rad Laboratories) and quantification using NIH-image.

[2] = test system: PC12h cells; assay: Prevention of glutamate-induced cell death (apoptosis) in PC12h cells, surviving cells by LDH activity; format: cell-based, rat; conditions: 1 mM glutamate, 72 hours, mean of 3 wells
Method: Substrain PC12h cells of rat-derived pheochromocytoma PC12 h cells were handed out by Professor Hiroshi Hatanaka of Osaka University. Dulbecco's modified Eagle's medium (DMEM) was purchased from Nissui Seiyaku K.K., HEPES (N-2-hydroxyethylpiperazine-N′-2-ethanesulfonic acid) buffer (pH 7.4), horse serum (HS) and a penicillin (5000 U/ml)/streptomycin (5 mg/ml) mixture from Gibco, fetal calf serum (FCS) from BioWhittaker, Inc., transferrin, insulin and progesterone from Sigma, Inc. A flask for incubation and a collagen-coated 96-well multi-well plate used were manufactured by Falcon Co., Ltd. and Iwaki Glass Co., Ltd., respectively. LDH cytotoxic test Wako was purchased from Wako Pure Chemical Industries, Ltd. Other reagents used were special grade chemicals commercially available.
PC12h cells were inoculated on the 96-well plate in 2×10^4 cells/cm^2. On the following day, the medium was exchanged with HEPES/DME medium containing […] and 20 nM progesterone. The cells survived 72 hours after were counted. The cell number was determined by solubilizing the cells survived in PBS containing Tween 20 after removal of the medium and assaying in terms of the LDH activity.
In PC12h cells, glutamate in the medium hampers uptake of cystine, or a material to make glutathione, into cells. Thus, when 1 mM or more glutamates are added to a medium and incubation is continued for 3 days or longer, it is known that PC12h cells become extinct due to apoptosis accompanied by a reduced level of glutathione in the cells.

For COc1ccc(C(=O)N2c3ccccc3[C@H](Nc3ccccc3)C[C@@H]2C)cc1OC (relative stereo) [Compound 1-3, cis-1-(3,4-dimethoxybenzoyl)-2-methyl-N-phenyl-1,2,3,4-tetrahydro-4-quinolinamine], the “sAPP secretion level (relative value to the control group, when the control group is made 100)” value ([1]; 3 μM of each compound, mean of 3 wells, anti-βAPP 22C11 Western blotting quantified with NIH Image) was 325.14, the “sAPP level increase as compared to the control group” value ([1]; 3 μM, mean relative value in 3 wells (FIG. 2)) was 3.3 times and the “Surviving Rate (%)” value ([2]; 0.1 μM compound) was 4.89%. For the same compound, the “Surviving Rate (%)” value ([2]; 0.3 μM compound) was 7.44%, the “Surviving Rate (%)” value ([2]; 1.0 μM compound) was 49.17% and the “Surviving Rate (%)” value ([2]; 3.0 μM compound) was 77.51%. The “Surviving Rate (%)” value ([2]; 10.0 μM compound) was 63.24%.

In the case of COc1ccc(C(=O)N2CCN(Cc3ccc(-c4ccccc4)cc3)c3ccccc32)cc1OC [Example 42, 1-([1,1′-Biphenyl]-4-ylmethyl)-4-(3,4-dimethoxybenzoyl)-1,2,3,4-tetrahydroquinoxaline], the melting point is reported as 133 to 134 °C.

In the case of COc1cc(C(=O)N2c3ccccc3C(Nc3ccccc3)CC2C)cc(OC)c1OC (stereo not drawn) [Example 6, cis-2-Methyl-N-phenyl-1-(3,4,5-trimethoybenzoyl)-1,2,3,4-tetrahydro-4-quinolinamine], the melting point is reported as 300 °C.

Work on COc1ccc(C(=O)N2CCC(Nc3ccc4ncccc4c3)c3ccccc32)cc1OC (stereo not shown) [Example 21, 1-(3,4-Dimethoxybenzoyl)-N-(6-quinolinyl)-1,2,3,4-tetrahydro-4-quinolinamine] yielded a melting point of 116 to 118 °C.

COc1ccc(C(=O)N2CCC(Nc3cccc(Cl)c3)c3ccccc32)cc1OC (stereo not shown) [Example 32, N-(3-Chlorophenyl)-1-(3,4-dimethoxybenzoyl)-1,2,3,4-tetrahydro-4-quinolinamine] gave a melting point of 160 °C.

In the case of CC1CC(Nc2ccccc2)c2ccccc2N1C(=O)c1ccc2c(c1)OCO2 (stereo not drawn) [Example 5, cis-1-(1,3-Benzoxol-5-ylcarbonyl)-2-methyl-N-phenyl-1,2,3,4-tetrahydro-4-quinolinamine], the melting point is reported as 175 °C.

COc1ccc(C(=O)N2CCC(N(C)c3ccc(Cl)cc3)c3ccccc32)cc1OC (stereo not shown) [Example 36, N-(4-Chlorophenyl)-1-(3,4-dimethoxybenzoyl)-N-methyl-1,2,3,4-tetrahydro-4-quinolinamine] showed a melting point of 72 to 74 °C.

With COc1ccc(C(=O)N2CCC(N(C)c3ccc(Br)cc3)c3ccccc32)cc1OC (stereo not shown) [Example 37, N-(4-Bromophenyl)-1-(3,4-dimethoxybenzoyl)-N-methyl-1,2,3,4-tetrahydro-4-quinolinamine] the melting point was 73 to 74 °C.

COc1ccc(C(=O)N2CCC(Nc3ccccc3Cl)c3cc(Cl)ccc32)cc1OC (stereo not shown) [Example 39, 6-Chloro-N-(2-chlorophenyl)-1-(3,4-dimethoxybenzoyl)-1,2,3,4-tetrahydro-4-quinolinamine] showed a melting point of 87 to 89 °C.

With COc1ccc(C(=O)N2CCC(Nc3ccccn3)c3ccccc32)cc1OC (stereo not shown) [Example 22, 1-(3,4-Dimethoxybenzoyl)-N-(2-pyridinyl)-1,2,3,4-tetrahydro-4-quinolinamine] the melting point was 156 to 157 °C.

For COc1ccc(C(=O)N2CCC(Nc3ccccc3)c3ccccc32)cc1OC (stereo not shown) [Example 17, 1-(3,4-Dimethoxybenzoyl)-N-phenyl-1,2,3,4-tetrahydro-4-quinolinamine], the melting point was 155 to 156 °C.

In the case of COc1ccc(C(=O)N2CCN(Cc3ccccc3)c3ccccc32)cc1OC [Example 20, 1-Benzyl-4-(3,4-dimethoxybenzoyl)-1,2,3,4-tetrahydroquinoxaline], the melting point is reported as 111 to 112 °C.

C[C@H]1C[C@H](Nc2ccccc2)c2ccccc2N1C(=O)c1ccc2c(c1)OCO2 (relative stereo) [Example 7, Trans-1-(1,3-Benzodioxol-5-ylcarbonyl)-2-methyl-N-phenyl-1,2,3,4-tetrahydro-4-quinolinamine] gave a melting point of 175 °C.
